According to paper PMC3755991, “Crystal Structure and Substrate Specificity of D-Galactose-6-Phosphate Isomerase Complexed with Substrates” (PLoS ONE, 2013):

What was measured:
[1] = target: T1, LacAB (D-galactose-6-phosphate isomerase) (Lacticaseibacillus rhamnosus, UniProt A0A7S7FMU0+A0ABF7SXF6); test: conversion to D-psicose in soaked crystal; format: binding; conditions: 40 mM soak for 2 hr; D-psicose seen in the electron density
T1 construct: gene LRHM_0645; full-length LacA (142 residues) and LacB (172 residues) co-expressed in E. coli BL21(DE3), pQE-80L, N-terminal His6

[2] = target: T1, LacAB (D-galactose-6-phosphate isomerase); test: X-ray crystal structure, soaking; format: binding; conditions: converted in the crystal, active site
[3] = target: D-galactose-6-phosphate isomerase LacAB from Lactobacillus rhamnosus (heterodimer of LacA and LacB) (Lactobacillus rhamnosus); test: SEC-MALS; purified LacAB on Superdex 200 10/300 GL, 50 mM Tris-HCl pH 7.5, 200 mM NaCl, 1 mL/min

Compound: OC[C@H]1OC(O)[C@H](O)[C@H](O)[C@@H]1O (stereo partly drawn) [D-allose]
- conversion to D-psicose in soaked crystal [1]: D-allose and D-ribose revealed that the substrates are converted to D-psicose and D-ribulose, respectively

Compound: OCC1(O)OC[C@@H](O)[C@@H](O)[C@H]1O (stereo partly drawn) [D-psicose]
- X-ray crystal structure, soaking ([2]; crystal soaked in 40 mM D-allose for 2 hr): 4LFM for its complex with D-psicose

Compound: O=C(CO)[C@H](O)[C@H](O)CO [D-ribulose]
- X-ray crystal structure, soaking ([2]; crystal soaked in 45 mM D-ribose for 2 hr): 4LFN for its complex with D-ribulose

Compound: D-galactose-6-phosphate isomerase LacAB from Lactobacillus rhamnosus (heterodimer of LacA and LacB) (from UniProt A0ABF7SXF6 1-172) (complex)
- stoichiometry N [3]: 4
